# Entries after “also recorded” stand apart in the source; their conditions may differ.
# Key:
# [1] = system: anandamide levels in RAW cells; assay: Anandamide levels in intact cultured RAW cells (HPLC-MS/MS); assay type: cell-based, murine; design: elevation of basal concentrations of anandamide: dose or concentration left out as unconfirmed
# Protocol: Cells were grown as described previously (Pestonjamasp and Burstein, Biochim Biophys Acta, 1394(2-3):249-60, 1998).
# IL-1β [2] = assay: IL-1β release from human peripheral blood monocytes (ELISA), LPS stimulated or not stimulated; assay type: cell-based; design: IL-lé release from PBM not stimulated with LPS (adherence only): dose or concentration left out as unconfirmed; settings: for IL-lé secretion from LPS stimulated peripheral blood mononuclear cells: 60 min preincubation, LPS 10 ng/ml 18 hours; for IL-lé release from PBM not stimulated with LPS (adherence only): unstimulated cells, 18 hours
# Protocol: Cells (2×106) were incubated for 60 minutes with either agent at the indicated concentrations. Vehicle (0.5% DMSO) treated cells served as controls. Cells were then not stimulated (FIG. 3A) or stimulated (FIG. 3B) with LPS (10 ng/ml) for 18 hours, at which time supernatant IL-lé was measured by ELISA. Values shown are the means obtained from triplicate samples (Control A=826 pg/ml; Control B=8.68±0.5 ng/ml).
# human T-lymphocytes = assay: PHA stimulated T-cell proliferation (BrDU incorporation); assay type: cell-based; settings: 0.1-10 mM, PHA 10 ng/ml, 72 hours
# Protocol: The cells were then stimulated with PHA (10 ng/ml) and incubated for 72 hours. A control set treated with NAGly/DMSO not stimulated with PHA was incubated in parallel. Cell numbers were determined by measuring BrDU incorporation for 24 hours. The values shown (see “PRO[…]” on the y-axis) are the ratios of the optical density readings from treated and control cells.
# Cell proliferation in vitro was measured by incorporation of 5-bromo-2′-deoxyuridine (BrDU) instead of thymidine into the DNA of proliferating cells. […] Cells (2×10^5 per well) were then cultured in 96 well, flat bottomed microtiter plates and stimulated with PHA (10 ng/ml) or not stimulated. Cultures were maintained for 72 hours in a standard cell incubator at 37° C. BrDU was then added to all wells and cells are then reincubated for 24 hours. The medium was removed and the cells were fixed and DNA was denatured. Anti-BrDU-peroxidase was added and the immune complex was detected by substrate (tetramethylbenzidine) reaction. The reaction was stopped with […] sulfuric acid (1N) and the product was quantified by measuring the absorbance at 492 nm with reference at 650 nm. Absorbance correlated directly to the amount of DNA synthesis, and, thereby, to the number of proliferating cells in each culture.
# human T lymphocytes [3] = assay: Proliferation of anti CD3, CD4 treated human T lymphocytes; assay type: cell-based; settings: 0.1 to 1.0 mM, vs vehicle (DMSO)
# IL-1β [4] = settings: concentrations of 1 μm and 10 μm; Burstein et al. 2000; cited from earlier work
# [5] = system: formalin-induced pain behavior; assay: Formalin test for pain reduction; assay type: in vivo; settings: rats
# Protocol: Rats received intraplantar injections of formalin in the hindpaw, and pain behavior consisting of lifting and licking of the injected paw was observed. Drug or co-vehicle was coinjected with the formalin solution (4.5% formalin in 10% DMSO, 100μl, s.c., ipl.).
# [6] = system: arachidonic acid-induced paw edema; assay: Arachidonic acid-induced paw edema test; assay type: in vivo, mice
# Protocol: The conditions employed in the paw edema test have been previously described (Calhoun et al., Agents Actions, 21:306-309, 1987; Burstein et al., J. Pharmacology and Experimental Therapeutics, 251:531-535; Burstein et al., J. Med. Chem., 35:3135-41, 1992), with water being substituted for mercury as the displacement medium. Arachidonic acid (1.0 mg) in 25 μl of saline is injected subcutaneously into the plantar surface of the right hindpaw of ether-anesthetized CD-1 female mice (20-25 g) obtained from Charles River Laboratories. The volume of the right foot is then measured to the level of the lateral malleolus by water displacement before treatment and 30 minutes after arachidonic acid injection. An N-fatty acid-amino acid conjugate, in 50 μl of peanut oil, is given p.o. to the mice 30 min prior to the induction of edema by arachidonic acid. The change in paw volume is calculated for each mouse and the significance for each group can be determined by an ANOVA test.
# The conditions were previously described by Calhoun et al. (Agents Actions, 21:306-309, 1987), and by Burstein et al. (J. Pharmacology and Experimental Therapeutics, 251:531-535; J. Med. Chem., 35:3135-41, 1992), with water being substituted for mercury as the displacement medium. Arachidonic acid (1.0 mg in 25μl of saline) was injected subcutaneously into the plantar surface of the right hindpaw of ether-anesthetized CD-1 female mice (20-25 g) obtained from Charles River Laboratories. The volume of the right foot was measured to the level of the lateral malleous by water displacement before treatment and 30 minutes after arachidonic acid injection. […] The change in paw volume was calculated for each mouse and the significance for each group was determined by an ANOVA test.
# [7] = system: RAW 264.7 murine monocyte cells; assay: RAW cell proliferation (MTT assay); assay type: cell-based; settings: 24 hours treatment; 25, 50 and 100 mM
# Protocol: Cells were maintained in MEM containing 0.5% serum overnight. […] After a 24 hour incubation period, […] MTT (Sigma Co) solution (5 mg/ml in PBS) was added to each well and incubated for 2 hours at 37° C. Then, cells were triturated in 1.1 ml isopropanol MTT solubilization solution (Sigma Co). […] of this mixture was then transferred in duplicate to a 96 well plate and the optical density recorded using a ThermoMax® microplate reader at […] absorbance. Based on a standard curve with known numbers of cells, experimental readings were in the linear range for cell numbers.
# Values shown in FIG. 5 are optical density readings obtained using the MTT assay and are directly proportional to the numbers of cells. They are the means of four replicates ± SD. […] The values shown are the optical density readings obtained from the MTT assay where a value of 0.5 is approximately equivalent to 2×10^4 cells. Vehicle treated cells served as the control and gave a reading of 0.396±0.047 O.D. units. The data shown is representative of three independent experiments.
# [8] = system: arachidonic acid release in RAW cells; assay: Arachidonic acid release in RAW cells; assay type: cell-based, murine
# Protocol: Radiolabelled arachidonic acid was incorporated into the cellular lipid pools for 20 hours. […] Over the concentration range of 1.6-32 mM, a 300% increase in labeled, free arachidonic acid was found in the media when compared to vehicle treated control values. Media from cells in the control group contained 8,800±1600 dpm.
# The cells were grown in MEM with 1% penicillin-streptomycin and 10% fetal bovine serum at 37° C. under 95% […]:5% carbon dioxide to about 85% confluence. Cells were contained in 24-well plates and labeled with 100,000 dpm/ml/well of ^3H or ^14C arachidonic acid at 37° C. for 20 hours (Pestonjamasp and Burstein, Biochim Biophys Acta, 1394(2-3):249-60, 1998). The wells were washed 4 times with 0.5% BSA in MEM followed by incubation in 1 ml 0.1% BSA-MEM for 60 minutes. […] Control values were obtained with 10 μl of vehicle. Media were collected, centrifuged at 3000×g to remove cells, and 0.1 ml withdrawn and assayed for radioactivity by liquid scintillation counting.
# NF-κB = assay: NFk-B inhibition studies in PBM (DNA binding, autoradiographic-PAGE); assay type: cell-based; settings: 1 hour, then LPS 10 ng/ml 60 minutes; human PBM, two donors
# Protocol: PBM from two donors were prepared and treated separately. Cell extracts were then obtained and analyzed for DNA binding of NF-kB, as determined by autoradiographic-PAGE measurement, according to the following method. […] Media were then removed and the cells were transferred to 1.5 ml microcentrifuge tubes and washed 2 times with ice cold PBS. After centrifugation at 10,000 rpm, PBS was removed and 0.5 ml of cytoplasmic extraction buffer (buffer A) was added to the cell pellet. Tubes were vortexed and placed on ice for 10 minutes, then centrifuged at 12,000 rpm for 5 minutes. Cells were washed once with buffer A, which was then added to previous cytosol extract fraction. Cytoplasmic extracts were saved at −80° C. until use. 0.1 ml of cold nuclear extraction buffer (buffer B) was then added to precipitated nuclei and incubated for 60-120 minutes in ice. Nuclear extracts were obtained by centrifugation at 12,000 rpm for 10 minutes and saved at −80° C. until use. (Extraction buffer A is a hypotonic solution and contains HEPES, KCl, EDTA, EGTA, DTT, PMSF, leupeptin, antipain, aprotinin, and NP-40 detergent. Extraction buffer B is a high salt buffer and contains all of the above agents plus glycerol.) The protein concentrations of the nuclear extracts were determined by the Bradford protein assay (Coumassie blue staining). […] Gels were scanned and analysed utilizing the Adobe software for PC.
# [9] = system: blood levels of anandamide; settings: 10 mg/kg p.o., rats, 45 minutes post treatment, vs vehicle-treated
# Protocol: Anandamide and NAGly levels were measured in plasma extracts by HPLC-MS/MS with d8-anandamide added as an internal standard. Reverse phase HPLC was performed on a 100×1 mm i.d. column packed with ODS Hypersil® (3 μm, 120 A pore size, Keystone Scientific, Inc., Bellefonte, Pa.). A Rheos® 2000 micro HPLC pumping system was used to pump the mobile phase (90% methanol, 10% 0.05% pH 5.7 aqueous ammonium acetate buffer) at 50μl/minute. The outlet from the column was connected directly to the electrospray ion source of a Finnigan® LCQ quadrupole ion trap mass spectrometry system. Positive ion electrospray ionization was used with the source at 4500 V, the capillary at 200° and the nitrogen sheath gas at a relative setting of 60. NAGly eluted at 1.4 minutes and was detected by MS2 of its MH+ion (m/z 362.2) with an isolation window of 2.5 Th and relative collision energy (CID) of 29%. Full product ion spectra were collected from m/z 95-370 and peak areas from ion plots of m/z 287.2 were used for quantitation. Anandamide and d8-anandamide were similarly detected using their MH+ions (m/z 348.2 and 356.2) as precursors with isolation windows of 2.5 Th and CID at 30%. […] Concentrations of NAGly and anandamide were calculated from their peak area ratios to the internal standard with reference to an external calibration curve. […]
# human T lymphocytes [10] = settings: Burstein et al. 2000; cited from earlier work
# [11] = 275 nmol coinjected with formalin
compound,measurement,setting,value
Deuterated N-arachidonylglycine [d8-NAGly],elevation of basal concentrations of anandamide,[1],50%
same,increase in anandamide (unlabelled),[1]; 10 mM deuterated NAGly,~3 ng/mL
same,increase in d8-anandamide,[1]; 10 mM deuterated NAGly,< 0.5 ng/mL
"CCCCC/C=C\C/C=C\C/C=C\C/C=C\CCCC(=O)NCCO [anandamide, reference compound]",IL-lé secretion from LPS stimulated peripheral blood mononuclear cells,IL-1β [2],smaller effect
same,IL-lé secretion from LPS stimulated peripheral blood mononuclear cells,IL-1β [2]; listed as Anandamide,less effective than NAGly
same,IL-lé release from PBM not stimulated with LPS (adherence only),IL-1β [2],less effective than NAGly
same,proliferation of PHA stimulated T-cells (proliferation index),human T-lymphocytes,little or no effect
same,proliferation of PHA stimulated T-cells (proliferation index),human T-lymphocytes; listed as Anandamide,no significant effects
same,"proliferation of anti CD3, CD4 treated human T lymphocytes",human T lymphocytes [3],either no effect or a modest inhibition
same,"proliferation of anti CD3, CD4 treated human T lymphocytes",human T lymphocytes [3]; listed as Anandamide,only inhibition
same,IL-1β secretion from stimulated human PBMC,IL-1β [4],modestly suppress
"CCCCC/C=C\C/C=C\C/C=C\C/C=C\CCCC(=O)O [arachidonic acid, reference compound]",pain suppression in the formalin test,[5]; [11],Neither glycine nor arachidonic acid (275 nmol) suppressed pain
N-arachidonyl glycine [NAGly],reduction of paw volumes,"[6]; 4 mg/kg orally, vs vehicle treated",reduced paw volumes by one half
same,paw edema response compared with indomethacin,[6]; NAGly 4 and 40 mg/kg vs 0.2 mg/kg indomethacin,equivalent response
same,reduction of paw edema,"[6]; doses of 4 and 40 mg/kg p.o., 30 min before arachidonic acid, vs untreated control mice that received only arachidonic acid",more than 50%
same,IL-lé secretion from LPS stimulated peripheral blood mononuclear cells,IL-1β [2],more effective inhibitor than anandamide; also recorded: suppresses; also recorded: inhibitory in a dose-related fashion
same,IL-lé release from PBM not stimulated with LPS (adherence only),IL-1β [2],more effective inhibitor than anandamide; also recorded: striking reduction; also recorded: markedly reduces
same,"proliferation of anti CD3, CD4 treated human T lymphocytes",human T lymphocytes [3],inverse dose-related increase; also recorded: stimulatory at low concentrations and somewhat inhibitory at higher concentrations
same,inhibition of RAW cell proliferation (MTT optical density),[7],dose-related inhibition; also recorded: Significant decreases in cell numbers; also recorded: significant inhibition of cell proliferation
same,"increase in labeled, free arachidonic acid in the media","[8]; 1.6-32 mM, 60 minutes, vs vehicle treated control",300%
same,stimulation of arachidonic acid release,[8]; range of 2-32 mM,three fold stimulation
same,binding of NF k-B to DNA / NFk-B activation,NF-κB,effectively reduces; also recorded: strong inhibitory effect
same,elevation of basal concentrations of anandamide,[1],50%
same,second phase (tonic pain) of the formalin response,"[5]; 275 nmol coinjected with formalin, intraplantar",markedly suppressed
same,first phase (acute pain) of the formalin response,"[5]; coinjected with formalin, intraplantar",no effect
same,rise in blood levels of anandamide,[9],nearly ten-fold rise
same,IL-1β secretion from stimulated human PBMC,IL-1β [4],modestly suppress
same,"proliferation of CD3-CD4 antibody-stimulated T-cells, prior observation",human T lymphocytes [10],biphasic effect
"COc1ccc2c(c1)c(CC(=O)O)c(C)n2C(=O)c1ccc(Cl)cc1 [indomethacin, reference compound]",paw edema response of the reference NSAID,[6]; 0.2 mg/kg,equivalent response
"NCC(=O)O [glycine, reference compound]",pain suppression in the formalin test,[5]; [11],Neither glycine nor arachidonic acid (275 nmol) suppressed pain
